Here are results for one compound from patent publication US9073916B2, “Prodrug forms of kinase inhibitors and their use in therapy” (AUCKLAND UNISERVICES LIMITED, priority 2009, dated 2015).

The data set can be described thus: physchem.

In the case of `Cn1cnc([N+](=O)[O-])c1C[N+](C)(C)C/C=C/C(=O)Nc1cc2c(Nc3ccc(F)c(Br)c3)ncnc2cn1` [Compound 42, (2E)-4-{[4-(3-bromo-4-fluoroanilino)pyrido[3,4-d]pyrimidin-6-yl]amino}-N,N-dimethyl-N-[(1-methyl-4-nitro-1H-imidazol-5-yl)methyl]-4-oxo-2-buten-1-ammonium bromide], the solubility by setting is: (aqueous buffer) 129 µM; (water) more than 1160 µM.

The term solubility denotes how much of the substance goes into solution per volume. A lower solubility goes with little dissolved substance.
